According to US20240360194A1, “New Peptides as Potent and Selective GIP Receptor Agonists” (Sanofi, priority 2021, published 2024):
In brackets after ≈: the same amount, converted by molar mass. Where two headings read alike, the source gives them in different places. Numbered stars: 1 amine (or outer) side, 2 acyl side, 3 side chain; on linkers, the order of the positions; unused ones are H or OH. Square brackets hold non-standard residues; d marks the D form. Side chains are listed from the residue outwards. Peptide text beside a SMILES is read from it. * marks the point of attachment. C18 diacid = O=C(O)CCCCCCCCCCCCCCCCC(=O)*; γGlu = O=C(O)[C@H](CCC(=O)[*:2])N[*:1]; AEEA = NCCOCCOCC(=O)O; Aib = CC(C)(N)C(=O)O

Key:
[1] = Chemical stability assessment (UHPLC-UV purity loss on storage in solution); format: physicochemical
Protocol: Purity of a peptide batch was determined through UHPLC/MS prior to chemical stability measurement. The target concentration was 300 μM pure compound. Solutions from solid samples were prepared in the following buffer systems with a concentration of ˜300 μM compound based on the previously determined % purity: • Chemical stability buffer system A) 20 mM phosphate buffer pH 7.4, • Chemical stability buffer system B) 8 mM phosphate buffer pH 7.4, 14 mg/ml propylene glycol, 5.5 mg/ml phenol • Chemical stability buffer system C) 100 mM phosphate buffer pH 7.4, 2.7 mg/ml m-cresol
Prepared solutions were filtered through […] pore size and filled into sterilized glass containers under laminar flow conditions.
Glass containers were stored for 28 days at 5 and 40° C. After this time, the samples were centrifuged for 15 min at 2500 RCF. Then 1.5 μl of the undiluted supernatant were analysed with UHPLC-UV.
The chemical stability was rated through the relative loss of purity calculated by the equation: […]
The purity is calculated as
The analytical methods used were Analytical UHPLC Method B or C.
Peptide samples were prepared in Chemical stability buffer system A or B and stability was assessed as described in Methods.

[2] = Solubility assessment (UHPLC-UV of supernatant, target 10 mg/ml); format: physicochemical
Outline: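 Peptides at 10 mg/ml (purity-corrected) in 100 mM phosphate pH 7.4, optionally with 2.7 mg/ml m-cresol; gentle agitation 1 h, then 5° C. overnight (24 h). Supernatant after 15 min centrifugation at 2500 RCF quantified by UHPLC-UV, with sequence-based extinction coefficients.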

[3] = ThT assay for the assessment of physical stability (fibrillation); format: physicochemical; settings: ThT buffer system A: 100 mM phosphate buffer pH 7.4; 3 mg/ml, 37° C., shaking
Text: Low physical stability of a peptide solution may lead to amyloid fibril formation, which is observed as well-ordered, thread-like macromolecular structures in the sample, which eventually may lead to gel formation. Thioflavin T (ThT) is widely used to visualize and quantify the presence of misfolded protein aggregates [Biancalana et al., Biochim. Biophys. Acta 2010, 1804(7), 1405]. […] Enzymol. 1999, 309, 274]. The time course for fibril formation often follows the characteristic shape of a sigmoidal curve and can be separated into three regions: a lag phase, a fast growth phase, and a plateau phase. The typical fibril formation process starts with the lag phase in which the amount of partially folded peptide turned into fibrils is not significant enough to be detected. The lag-time corresponds to the time the critical mass of the nucleus is built. Afterwards, a drastic elongation phase follows, and fibril concentration increases rapidly. Investigations were carried out to determine fibrillation tendencies under stress conditions by shaking at 37° C. within Fluoroskan Ascent FL or Fluoroskan Ascent. For the tests in Fluoroskan Ascent (FL), 200 μl sample were placed into a 96-well mictrotiter plate PS, flat bottom, Greiner Fluotrac No. 655076. Plates were sealed with Scotch Tape (Qiagen). Samples were stressed by continuous cycles of 10 sec shaking at 960 rpm and 50 sec rest period at 37° C. The kinetic was monitored by measuring fluorescence intensity every 20 min. Peptides were diluted in a buffer system to a final concentration of 3 mg/ml. 20 μl of a 10.1 mM ThT solution in H2O were added to 2 ml of peptide solution to receive a final concentration of 100 μM ThT. For each sample eight replicates were tested. • ThT buffer system A) 100 mM phosphate buffer pH 7.4 • ThT buffer system B) 100 mM phosphate buffer pH 7.4, 2.7 mg/ml m-cresol Lag time in hours (h) in Thioflavin T (ThT) assay of peptide samples was determined in ThT buffer system A as described in Methods.

[4] = target: human GLP-1 receptor (hGLP-1R) (Homo sapiens, UniProt P43220); assay: Binding assay, displacement of [125I]GLP-1 from HEK-293 membranes over-expressing GLP-1R (SPA); settings: [125I]GLP-1 displacement
Outline: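 Membranes from HEK-293 cells over-expressing human GIPR or GLP-1R, isolated by homogenising, sonicating and ultracentrifuging at 100000×g into HEPES/EDTA/NaCl buffer with protease inhibitors, were used for binding.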

[5] = Chemical stability buffer system A: 20 mM phosphate buffer pH 7.4, ~300 μM
[6] = 100 mM phosphate buffer pH 7.4 (solubility buffer system A), pH 7.4, Solubility buffer system A: 100 mM phosphate buffer pH 7.4, read-out: Soluble amount
[7] = pH 7.4, Solubility buffer system C: 100 mM phosphate buffer pH 7.4, 2.7 mg/ml m-cresol, read-out: Soluble amount

| solubility at 24 h [2, 6] [µg/mL] | solubility at 24 h [2, 7] [µg/mL] | IC50 [4] [nM] | Relative purity loss over 28 days at 40° C. ([1]; Chemical stability buffer system B: 8 mM phosphate buffer pH 7.4, 14 mg/ml propylene glycol, 5.5 mg/ml phenol) [%] | SMILES | Relative purity loss over 28 days at 40° C. [1, 5] [%] | Increase in FI [3] | Lag time before increase [3] [h] | solubility at 24 h ([2]; pH 7.4, Soluble amount) [µg/mL] |
| --- | --- | --- | --- | --- | --- | --- | --- | --- |
| > 30000 | > 8700 | 308 |  | CC[C@H](C)[C@H](NC(=O)[C@H](Cc1ccccc1)NC(=O)[C@H](CCC(=O)O)NC(=O)[C@H](CCC(=O)O)NC(=O)[C@H](CCC(N)=O)NC(=O)[C@H](Cc1c[nH]cn1)NC(=O)[C@@H](NC(=O)[C@H](CCCNC(=N)N)NC(=O)[C@H](CC(=O)O)NC(=O)[C@H](CCCCNC(=O)COCCOCCNC(=O)COCCOCCNC(=O)CC[C@H](NC(=O)CCCCCCCCCCCCCCCCC(=O)O)C(=O)O)NC(=O)C(C)(C)NC(=O)[C@@H](NC(=O)[C@H](CO)NC(=O)[C@H](CC(C)C)NC(=O)[C@H](CC(=O)O)NC(=O)[C@H](CO)NC(=O)[C@@H](NC(=O)[C@H](Cc1ccccc1)NC(=O)[C@@H](NC(=O)CNC(=O)[C@H](CCC(=O)O)NC(=O)C(C)(C)NC(=O)[C@@H](N)Cc1ccc(O)cc1)[C@@H](C)O)[C@@H](C)CC)[C@@H](C)CC)[C@@H](C)CC)C(=O)N[C@@H](CCC(=O)O)C(=O)N[C@@H](Cc1c[nH]c2ccccc12)C(=O)N[C@@H](CC(C)C)C(=O)N[C@@H](CC(C)C)C(=O)N[C@@H](C)C(=O)N[C@@H](CCC(N)=O)C(=O)N[C@@H](CCCNC(=N)N)C(=O)NCC(N)=O [SEQ ID NO: 4, H2N-Y-Aib-E-G-T-F-I-S-D-L-S-I-Aib-K[{AEEA}2-gGlu-C18OH]-D-R-I-H-Q-E-E-F-I-E-W-L-L-A-Q-R-G-NH2] | 5.1 | no | >45 |  |
| > 9000 | 1800 (≈ 415 µM) | 156 | 5.9 | CC[C@H](C)[C@H](NC(=O)[C@H](CCCNC(=N)N)NC(=O)[C@H](CC(=O)O)NC(=O)[C@H](CCCCNC(=O)COCCOCCNC(=O)COCCOCCNC(=O)CC[C@H](NC(=O)CCCCCCCCCCCCCCCCC(=O)O)C(=O)O)NC(=O)C(C)(C)NC(=O)[C@@H](NC(=O)[C@H](CO)NC(=O)[C@H](CC(C)C)NC(=O)[C@H](CC(=O)O)NC(=O)[C@H](CO)NC(=O)[C@@H](NC(=O)[C@H](Cc1ccccc1)NC(=O)[C@@H](NC(=O)CNC(=O)[C@H](CCC(=O)O)NC(=O)C(C)(C)NC(=O)[C@@H](N)Cc1ccc(O)cc1)[C@@H](C)O)[C@@H](C)CC)[C@@H](C)CC)C(=O)N[C@@H](Cc1c[nH]cn1)C(=O)N[C@@H](CCC(N)=O)C(=O)NC(C)(C)C(=O)N[C@@H](CCC(=O)O)C(=O)N[C@@H](Cc1ccccc1)C(=O)N[C@H](C(=O)N[C@@H](CCC(=O)O)C(=O)N[C@@H](Cc1c[nH]c2ccccc12)C(=O)N[C@@H](CC(C)C)C(=O)N[C@@H](CC(C)C)C(=O)N[C@@H](C)C(=O)N[C@@H](CCC(N)=O)C(=O)N[C@@H](CCCNC(=N)N)C(=O)NCC(N)=O)[C@@H](C)CC [SEQ ID NO: 6, H2N-Y-Aib-E-G-T-F-I-S-D-L-S-I-Aib-K[{AEEA}2-gGlu-C18OH]-D-R-I-H-Q-Aib-E-F-I-E-W-L-L-A-Q-R-G-NH2] | 5.6 | no | >45 |  |
|  |  |  |  | CC[C@H](C)[C@H](NC(=O)[C@H](CCCNC(=N)N)NC(=O)[C@H](CC(=O)O)NC(=O)[C@H](CC(C)C)NC(=O)C(C)(C)NC(=O)[C@@H](NC(=O)[C@H](CO)NC(=O)[C@H](CC(C)C)NC(=O)[C@H](CC(=O)O)NC(=O)[C@H](CO)NC(=O)[C@@H](NC(=O)[C@H](Cc1ccccc1)NC(=O)[C@@H](NC(=O)CNC(=O)[C@H](CCC(=O)O)NC(=O)C(C)(C)NC(=O)[C@@H](N)Cc1ccc(O)cc1)[C@@H](C)O)[C@@H](C)CC)[C@@H](C)CC)C(=O)N[C@@H](CCCCNC(=O)COCCOCCNC(=O)COCCOCCNC(=O)CC[C@H](NC(=O)CCCCCCCCCCCCCCCCC(=O)O)C(=O)O)C(=O)N[C@@H](CCC(N)=O)C(=O)NC(C)(C)C(=O)N[C@@H](CCC(=O)O)C(=O)N[C@@H](Cc1ccccc1)C(=O)N[C@H](C(=O)N[C@@H](CCC(=O)O)C(=O)N[C@@H](Cc1c[nH]c2ccccc12)C(=O)N[C@@H](CC(C)C)C(=O)N[C@@H](CC(C)C)C(=O)N[C@@H](C)C(=O)N[C@@H](CCC(N)=O)C(=O)NCC(=O)N1CCC[C@H]1C(=O)N[C@@H](CO)C(=O)N[C@@H](CO)C(=O)NCC(=O)N[C@@H](C)C(=O)N1CCC[C@H]1C(=O)N1CCC[C@H]1C(=O)N1CCC[C@H]1C(=O)N[C@@H](CO)C(N)=O)[C@@H](C)CC [SEQ ID NO: 37, H2N-Y-Aib-E-G-T-F-I-S-D-L-S-I-Aib-L-D-R-I-K[{AEEA}2-gGlu-C18OH]-Q-Aib-E-F-I-E-W-L-L-A-Q-G-P-S-S-G-A-P-P-P-S-NH2] (H-Y[Aib]EGTFISDLSI[Aib]LDRIK([AEEA-AEEA-γGlu-C18 diacid])Q[Aib]EFIEWLLAQGPSSGAPPPS-NH2) | 5.3 | no | >45 | 8600 (≈ 1740 µM) |

| SMILES | solubility at 24 h [2, 6] [µg/mL] | solubility at 24 h [2, 7] [µg/mL] | IC50 [4] [nM] | Relative purity loss over 28 days at 40° C. ([1]; Chemical stability buffer system B: 8 mM phosphate buffer pH 7.4, 14 mg/ml propylene glycol, 5.5 mg/ml phenol) [%] | Relative purity loss over 28 days at 40° C. [1, 5] [%] | Increase in FI [3] | Lag time before increase [3] [h] | solubility at 24 h ([2]; pH 7.4, Soluble amount) [µg/mL] |
| --- | --- | --- | --- | --- | --- | --- | --- | --- |
| CC[C@H](C)[C@H](NC(=O)[C@H](CCC(=O)O)NC(=O)[C@H](CCC(=O)O)NC(=O)[C@H](CCCCNC(=O)COCCOCCNC(=O)COCCOCCNC(=O)CC[C@H](NC(=O)CCCCCCCCCCCCCCCCC(=O)O)C(=O)O)NC(=O)C(C)(C)NC(=O)[C@@H](NC(=O)[C@H](CO)NC(=O)[C@H](CC(C)C)NC(=O)[C@H](CC(=O)O)NC(=O)[C@H](CO)NC(=O)[C@@H](NC(=O)[C@H](Cc1ccccc1)NC(=O)[C@@H](NC(=O)CNC(=O)[C@H](CCC(=O)O)NC(=O)C(C)(C)NC(=O)[C@@H](N)Cc1ccc(O)cc1)[C@@H](C)O)[C@@H](C)CC)[C@@H](C)CC)C(=O)N[C@@H](Cc1c[nH]cn1)C(=O)N[C@@H](CCC(N)=O)C(=O)NC(C)(C)C(=O)N[C@@H](CCC(=O)O)C(=O)N[C@@H](Cc1ccccc1)C(=O)N[C@H](C(=O)N[C@@H](CCC(=O)O)C(=O)N[C@@H](Cc1c[nH]c2ccccc12)C(=O)N[C@@H](CC(C)C)C(=O)N[C@@H](CC(C)C)C(=O)N[C@@H](C)C(=O)N[C@@H](CCC(N)=O)C(=O)NCC(=O)N1CCC[C@H]1C(=O)N[C@@H](CO)C(=O)N[C@@H](CO)C(=O)NCC(=O)N[C@@H](C)C(=O)N1CCC[C@H]1C(=O)N1CCC[C@H]1C(=O)N1CCC[C@H]1C(=O)N[C@@H](CO)C(N)=O)[C@@H](C)CC [SEQ ID NO: 19, H2N-Y-Aib-E-G-T-F-I-S-D-L-S-I-Aib-K[{AEEA}2-gGlu-C18OH]-E-E-I-H-Q-Aib-E-F-I-E-W-L-L-A-Q-G-P-S-S-G-A-P-P-P-S-NH2] (H-Y[Aib]EGTFISDLSI[Aib]K([AEEA-AEEA-γGlu-C18 diacid])EEIHQ[Aib]EFIEWLLAQGPSSGAPPPS-NH2) |  |  | 183 |  | 4.3 | no | >45 |  |
